# Data from PubChem BioAssay (NCI).
#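 96-well plates; 48 h exposure; 5 concentrations. Endpoints by linear interpolation between flanking doses. Not reached: highest tested concentration assigned. TGI denotes the concentration required for complete inhibition of growth.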
# Experiments:
# Experiment in all cases: NCI-60 cell line screen, 48 h
# EKVX NSCLC = system: EKVX NSCLC
# HCT-116 colon = system: HCT-116 colon
# HS 578T breast = system: HS 578T breast
# MDA-MB-231 breast = system: MDA-MB-231 breast
# MDA-MB-435 = system: MDA-MB-435
# NCI-H23 lung = system: NCI-H23 lung
# SF-268 CNS = system: SF-268 CNS
# SK-MEL-2 melanoma = system: SK-MEL-2 melanoma
# SK-OV-3 ovarian = system: SK-OV-3 ovarian
# SN12C renal = system: SN12C renal
# UO-31 renal = system: UO-31 renal
Compound,TGI (EKVX NSCLC),TGI (HCT-116 colon),TGI (HS 578T breast),TGI (MDA-MB-231 breast),TGI (MDA-MB-435),TGI (NCI-H23 lung),TGI (SF-268 CNS),TGI (SK-MEL-2 melanoma),TGI (SK-OV-3 ovarian),TGI (SN12C renal),TGI (UO-31 renal)
CN(CCCNC(=O)c1cc(-c2ccccc2)nc2ccccc12)CCCNC(=O)c1cc(-c2ccccc2)nc2ccccc12,17.2 µM,3.33 µM,16 µM,7.93 µM,3.17 µM,16.1 µM,14 µM,3.67 µM,26.2 µM,17.4 µM,6.52 µM
N#Cc1nc(C#N)n(S(=O)(=O)c2ccccc2)c1NS(=O)(=O)c1ccccc1,> 100 µM,> 100 µM,> 100 µM,> 100 µM,> 100 µM,> 100 µM,> 100 µM,> 31.6 µM,> 100 µM,> 100 µM,79.6 µM
CCN(CC)C1Oc2cc3c(cc2C(c2cccc(OC)c2OC)C1C)OCO3 (stereo unspecified),52.3 µM,12.8 µM,28.8 µM,35.4 µM,45.6 µM,35.7 µM,> 100 µM,30.2 µM,58.5 µM,> 100 µM,40.5 µM
Cc1cc2c(cc1C)[n+](=O)c(C(=O)c1ccccc1)c(C(F)(F)F)n2[O-],2.97 µM,10.6 µM,15.1 µM,6.55 µM,11.2 µM,6.78 µM,7.71 µM,19.7 µM,> 28.8 µM,10.2 µM,4.66 µM
CCCc1[nH]c2ccccc2c1-c1c(CCC)[nH]c2ccccc12,30.9 µM,15.2 µM,50.5 µM,38.6 µM,> 63.7 µM,26.8 µM,28.3 µM,35.7 µM,65.5 µM,23.2 µM,34.7 µM
C=CCC1(C)CCCN(Cc2ccccc2)C1=O (stereo unspecified),> 10 µM,> 10 µM,> 10 µM,> 10 µM,> 10 µM,> 10 µM,> 10 µM,> 10 µM,> 10 µM,> 10 µM,> 10 µM
COc1cccc(/N=N/C(=NNC(=O)c2ccc(C)cc2)c2ccc(N(C)C)cc2)c1,> 100 µM,> 100 µM,> 100 µM,> 100 µM,> 100 µM,> 100 µM,> 100 µM,> 100 µM,> 100 µM,> 100 µM,> 100 µM
O=[N+]([O-])c1ccc(C(O)(C#CCN2CCCC2)c2ccccc2)cc1 (stereo unspecified),> 100 µM,> 100 µM,95.7 µM,> 100 µM,80.1 µM,> 100 µM,> 100 µM,75.5 µM,> 100 µM,> 100 µM,> 100 µM
CC[C@@]1(O)C(=O)OCc2c1cc1n(c2=O)Cc2c-1nc1ccccc1c2/C=N\NC(=O)C(N)CCSC (stereo partly specified),> 100 µM,1.58 µM,> 100 µM,> 100 µM,3.58 µM,0.0526 µM,1.55 µM,4.2 µM,7.73 µM,0.925 µM,0.277 µM
O=c1[nH]c2nc3ccccc3c(=O)n2/c1=C/c1ccco1,> 100 µM,> 100 µM,> 100 µM,> 100 µM,> 100 µM,> 100 µM,> 100 µM,> 100 µM,> 100 µM,> 100 µM,> 100 µM
c1ccc(CC2COC(c3cccs3)=N2)cc1 (stereo unspecified),> 100 µM,> 100 µM,> 100 µM,> 100 µM,> 100 µM,> 100 µM,> 100 µM,> 100 µM,> 100 µM,> 100 µM,> 100 µM
O=c1[nH]nc(-c2ccccc2)n1O,> 100 µM,> 100 µM,> 100 µM,> 100 µM,> 100 µM,> 100 µM,> 100 µM,> 100 µM,> 100 µM,> 100 µM,> 100 µM
Nc1nc2c(C(=O)O)c3ccc([N+](=O)[O-])cc3c(=O)n2c2ccccc12,> 100 µM,42.8 µM,70.6 µM,79.1 µM,> 100 µM,64.9 µM,94.8 µM,79.1 µM,74.1 µM,58.1 µM,> 100 µM
CN=C(Nc1cccc(C(F)(F)F)c1)SCc1ccc(N=C=S)cc1,45.1 µM,29 µM,54.2 µM,32.3 µM,27 µM,31.4 µM,73.3 µM,25.6 µM,34.5 µM,26.9 µM,28.4 µM
CCc1ccc2c(c1)N(CC(C)CN(C)C)c1ccccc1S2 (stereo unspecified),24.3 µM,11 µM,18.6 µM,17.3 µM,8.13 µM,21.8 µM,20.5 µM,12 µM,18.7 µM,19.5 µM,10.3 µM
CC(=O)OCC1OC(OCCCOP(=S)(OCCC#N)OCC2OC(n3ccc(N)nc3=O)C(OC(=O)c3ccccc3)C2OC(=O)c2ccccc2)C(OC(C)=O)C(OC(C)=O)C1OC(C)=O (stereo unspecified),> 100 µM,> 100 µM,> 100 µM,> 100 µM,> 100 µM,> 100 µM,> 100 µM,> 100 µM,> 100 µM,> 100 µM,> 100 µM
